The test system of this test is S. aureus 29213. As to the kind of experiment: MIC by broth microdilution (NCCLS), S. aureus 29213. The format is cell-based. The settings on record: strain S. aureus 29213, cation-adjusted Mueller-Hinton Broth, pH 7.2-7.3; for MIC: Staphylococcus aureus. The protocol: These assays have been performed following the description given in “Methods for dilution Antimicrobial Susceptibility Tests for Bacteria that Grow Aerobically, 4th ed.; Approved standard: NCCLS Document M7-A4; National Committee for Clinical Laboratory Standards: Villanova, Pa., USA, 1997”. Minimal inhibitory concentrations (MICs; mg/l) were determined in cation-adjusted Mueller-Hinton Broth (BBL) by a microdilution method following NCCLS guidelines (National Committee for Clinical Laboratory Standards. Methods for Dilution Antimicrobial Susceptibility). The pH of the test medium was 7.2-7.3.
(In broth dilution the organism is exposed to a series of concentrations in liquid medium.)

≈ marks a conversion by molar mass, not a printed value.

As usually defined, the MIC is the least concentration at which growth counts as inhibited. The molecule `COc1ccc2ncc(F)c(CCCN(C[C@H](O)CO)C[C@@H]3CN(c4ccc5c(c4)OCCO5)C(=O)O3)c2n1` [Example 135, (R)-3-(2,3-dihydro-benzo[1,4]dioxin-6-yl)-5-({((S)-2,3-dihydroxy-propyl)-[3-(3-fluoro-6-methoxy-[1,5]naphthyridin-4-yl)-propyl]-amino}-methyl)-oxazolidin-2-one] had a minimum inhibitory concentration (MIC) of at most 0.063 µg/mL. For `COc1ccc2nccc(CC[C@@H](O)CC[C@@H]3CN(c4ccc5c(c4)NC(=O)CS5)C(=O)O3)c2n1` (racemic) [Example 122, 6-{(RS)-5-[(RS)-3-hydroxy-5-(6-methoxy-[1,5]naphthyridin-4-yl)-pentyl]-2-oxo-oxazolidin-3-yl}-4H-benzo[1,4]thiazin-3-one], the MIC was at most 0.063 µg/mL. As to `COc1cnc2cccc(CCCNC[C@@H]3CN(c4ccc5c(c4)NC(=O)CS5)C(=O)O3)c2c1` [Example 35, 6-((R)-5-{[3-(3-methoxy-quinolin-5-yl)-propylamino]-methyl}-2-oxo-oxazolidin-3-yl)-4H-benzo[1,4]thiazin-3-one], the MIC was at most 0.063 µg/mL. Same read-out and setting: the value for `COc1ccc2nccc(CCC[C@@H](O)C[C@@H]3CN(c4ccc5c(c4)OCCO5)C(=O)O3)c2n1` (racemic) [Example 123, (RS)-3-(2,3-dihydro-benzo[1,4]dioxin-6-yl)-5-[(RS)-2-hydroxy-5-(6-methoxy-[1,5]naphthyridin-4-yl)-pentyl]oxazolidin-2-one] was at most 0.063 µg/mL; that for `COc1cc2ccccc2c(CNCCCC2CN(c3ccc4c(c3)NC(=O)CS4)C(=O)O2)c1OC` (racemic) [Example 168, rac-6-(5-{3-[(2,3-dimethoxy-naphthalen-1-ylmethyl)-amino]-propyl}-2-oxo-oxazolidin-3-yl)-4H-benzo[1,4]thiazin-3-one] was at most 0.063 µg/mL. Same read-out and setting: the value for `COc1cnc2cccc(CN(C)C(=O)CCC3CN(c4ccc5c(c4)OCCO5)C(=O)O3)c2n1` (racemic) [Example 110, rac-3-[3-(2,3-dihydro-benzo[1,4]dioxin-6-yl)-2-oxo-oxazolidin-5-yl]-N-(3-methoxy-quinoxalin-5-ylmethyl)-N-methyl-propionamide] was at most 0.063 µg/mL; that for `N#Cc1ccc2cccc(/C=C/C(=O)NC[C@@H]3CN(c4ccc5c(c4)OCCO5)C(=O)O3)c2n1` [Example 16, (E)-3-(2-cyano-quinolin-8-yl)-N-[(R)-3-(2,3-dihydro-benzo[1,4]dioxin-6-yl)-2-oxo-oxazolidin-5-ylmethyl]-acrylamide] was 0.125 µg/mL (≈ 0.274 µM). Take `COc1ccc2ncc(F)c(CN(CCCC3CN(c4ccc5c(c4)NC(=O)CS5)C(=O)O3)C[C@@H](O)CN(C)C)c2n1` (mixture of isomers) [Example 153, 6-((RS)-5-{3-[((S)-3-dimethylamino-2-hydroxy-propyl)-(3-fluoro-6-methoxy-[1,5]naphthyridin-4-ylmethyl)-amino]-propyl}-2-oxo-oxazolidin-3-yl)-4H-1-benzo[1,4]thiazin-3-one]: the “MIC S. aureus 29213” value was “≦0.063 mg/l”. The molecule `COc1ccc2nccc(CCCCNC[C@@H]3CN(c4ccc5c(c4)NC(=O)CS5)C(=O)O3)c2n1` [Example 113, 6-((R)-5-{[4-(6-methoxy-[1,5]naphthyridin-4-yl)-butylamino]-methyl}-2-oxo-oxazolidin-3-yl)-4H-benzo[1,4]thiazin-3-one] yielded a minimal inhibitory concentration (MIC) of at most 0.063 µg/mL. On the same count and under the same terms, the value for `COCCOc1ccc(CNCCCC2CN(c3ccc4c(c3)NC(=O)CS4)C(=O)O2)c2nc(OC)cnc12` (racemic) [Example 157, rac-6-[5-(3-{[3-methoxy-8-(2-methoxy-ethoxy)-quinoxalin-5-ylmethyl]-amino}-propyl)-2-oxo-oxazolidin-3-yl]-4H-benzo[1,4]thiazin-3-one] was 0.125 µg/mL (≈ 0.226 µM); that for `COc1cnc2cccc([C@@H](O)CNCC[C@@H]3CN(c4ccc5c(c4)OCCO5)C(=O)O3)c2n1` (relative stereo) [Example 92, (R*)-3-(2,3-dihydro-benzo[1,4]dioxin-6-yl)-5-{2-[(R*)-2-hydroxy-2-(3-methoxy-quinoxalin-5-yl)-ethylamino]-ethyl}-oxazolidin-2-one] was 0.125 µg/mL (≈ 0.268 µM); that for `O=C1CSc2ccc(N3CC(CCCNCc4cccc5ccccc45)OC3=O)cc2N1` (racemic) [Example 155, rac-6-(5-{3-[(naphthalen-1-ylmethyl)-amino]-propyl}-2-oxo-oxazolidin-3-yl)-4H-benzo[1,4]thiazin-3-one] was at most 0.063 µg/mL.

Molecule `COc1ccc2ncc(F)c(CN(CCCC3CN(c4ccc5c(c4)NC(=O)CS5)C(=O)O3)C[C@@H](O)CCl)c2n1` (mixture of isomers) [Example 152, 6-((RS)-5-{3-[((R)-3-chloro-2-hydroxy-propyl)-(3-fluoro-6-methoxy-[1,5]naphthyridin-4-ylmethyl)-amino]-propyl}-2-oxo-oxazolidin-3-yl)-4H-benzo[1,4]thiazin-3-one] yielded an MIC of at most 0.063 µg/mL. The same measure, in the same setting: the value for `COc1ccc2ncc(F)c(CNC[C@H](O)[C@@H](O)[C@@H]3CN(c4ccc5c(c4)OCCO5)C(=O)O3)c2c1` [Example 181, (S)-3-(2,3-dihydro-benzo[1,4]dioxin-6-yl)-5-{(1R,2S)-3-[(3-fluoro-6-methoxy-quinolin-4-ylmethyl)-amino]-1,2-dihydroxy-propyl}-oxazolidin-2-one] was at most 0.063 µg/mL.
